From patent US20230270881A1, “ONCOGENIC TRIM37 IS A TARGETABLE EPIGENETIC DRIVER OF METASTASIS AND LINKS CHEMORESISTANCE AND METASTATIC FATE IN TRIPLE-NEGATIVE BREAST CANCER” (University of Virginia Patent Foundation, priority 2020, published 2023)

What was measured:
231-2b tumors = assay: NSG tumor xenograft, smart nanoparticles with or without Dox; format: in vivo, NSG mice; conditions: 231-2b xenografts; 1.2 mg/kg nanoparticles intra-tumor every three days for 18 days; 2 mg/kg Dox two doses
Description: (§1) NSG tumor xenograft studies. All animal procedures were conducted under the accordance of the University of Virginia IACUC with approved protocol (4112 and 4222). For different cell lines, weight and aged matched female NSG mice were injected subcutaneously with 2×10^6 TNBC cells in their right flank with indicated cell line in matrigel. 2×10^6 HCC1806RR or 231-2b were injected in 100 µl volume. For Dox-induced TRIM37 upregulation studies in tumor, mice bearing ~200 mm^3 HCC1806 tumors weight matched animals were randomly assigned into groups and injected with 2 mg/kg Dox. Tumors were harvested 24 hrs. following Dox treatment. For smart nanoparticles efficiency in vivo, mice bearing ~200 mm^3 231-2b tumors weight matched animals were randomly assigned into groups and injected with control or smart nanoparticles. At the endpoint, RNA and protein lysates were prepared from isolated tumors and analyzed by western blotting.
To investigate the outcome of TRIM37 targeting in clinical settings, we challenged 231-2b-derived xenografts with smart nanoparticles in combination with chemotherapy. When tumors reached the size of ~50 mm^3, animals received two doses of either 2 mg/kg Dox or vehicle (FIG. 7J). Furthermore, within each group, animals were randomly administered 1.2 mg/kg (~4×10^7nanoparticles) of smart or control nanoparticles intra-tumor every three days for 18 days (FIG. 7J).

TRIM37 = assay: Immunoblotting of TRIM37 in treated cells; format: cell-based, human
Description: Immunoblotting. Cell extracts were prepared by lysing cell pellet in RIPA buffer supplemented with 1 mM sodium ortho-vanadate and 10 mM PMSF. To prepare protein extract from mouse tissue, it was homogenized in lysis buffer (1% SDS, 1 mM sodium ortho-vanadate, 10 mM Tris pH 7.4 and protease inhibitor). Immunoblots were probed using antibodies against TRIM37 (Abcam), PARP (Cell Signaling Technology), p21 (Cell Signaling Technology), γ-ph-H2AX (Cell Signaling Technology), RAD51C (Invitrogen), ph-ATM (Cell Signaling Technology), ph-STAT1 (Cell Signaling Technology), ph-STAT3 (Cell Signaling Technology), ph-STAT5 (Cell Signaling Technology), BIM (Abcam), FOLR1 (R&D) and α-tubulin (Invitrogen).

HCC1806 tumors = assay: NSG tumor xenograft, Dox-induced TRIM37 upregulation; format: in vivo; conditions: mice bearing HCC1806RR subcutaneous tumors, 2 mg/kg Dox
Description: as §1

With `COc1cccc2c1C(=O)c1c(O)c3c(c(O)c1C2=O)C[C@@](O)(C(=O)CO)C[C@@H]3O[C@H]1C[C@H](N)[C@H](O)[C@H](C)O1` [doxorubicin] the tumor growth (231-2b tumors) was “significantly attenuated”, the TRIM37 expression (TRIM37; MCF7 or MCF10A cells) was “no increase” and the TRIM37 expression (TRIM37; MDA MB 468, HCC1806 and MDA MB 231 cells) was “dose- and time-dependent upregulation”. The “TRIM37 in xenograft tumors” value (HCC1806 tumors) was “upregulated TRIM37” and the “TRIM37 in xenograft tumors” value (HCC1806 tumors; listed as dox) was “increased TRIM37 level”.
